Experimental data as given in patent publication US8999296B2, “Method of detecting bladder cancer” (Kochi University, priority 2008, dated 2015).

Key:
bladder cancer [1] = experiment: Intraoperative photodynamic diagnosis of bladder cancer with ALA-HCl (video camera system and VLD-M1 fluorescence intensity), Example 1; assay type: in vivo, human; conditions: for Fluorescence intensity (relative intensity) by VLD-M1: irradiation at 405 nm, PpIX fluorescence at 635 nm, one subject
Procedure: Intraoperative diagnosis using 5-aminolevulinic acid hydrochloride (ALA-HCl) was carried out for two subjects who are in the almost same progression stage of bladder cancer. The subjects were administered ALA-HCl respectively by bladder instillation and by oral intake. Bladder instillation was conducted on the day of operation by dissolving 1.5 g of ALA-HCl in 50 mL of a 8.4% sodium bicarbonate (sodium hydrogen carbonate: NaHCO3) to adjust pH (median pH of 8.0 (pH 7.8-8.2)), filtrating the dissolved ALA-HCl solution with a 0.22 μm filter, and then injecting this dissolved solution (50 mL) into the bladder of a subject. Retention time in the bladder was set for 120-150 min ([…]) and ALA was eliminated just prior to the operation. On the other hand, oral intake was carried out by dissolving ALA (maximum of 1 g) in 50 mL of a 5% dextrose solution to 20 mg/kg, and the ALA dissolved solution (50 mL) was orally administered to the other subject in the morning (4 hours before commencement of the operation) without giving breakfast. Diagnosis was conducted based on the diagnostic imaging and fluorescent intensity with the use of a video camera system: Endovision TELECAM SL/IPM-PPDSystem (KARL STORZ) and VLD-M1 (M&M). The video camera system was inserted via the urethra and the red light part was observed after irradiating a blue fluorescence at 380-440 nm. Further, VLD-M1 was inserted and fluorescence intensity (relative intensity) at the red light part was observed after irradiating a blue fluorescence at 405 nm.
In addition, at 635 nm which is the […] for protoporphyrin IX (PpIX), it was confirmed as shown in Table 1 that the fluorescence intensity was higher in the case of oral intake than in the case of bladder instillation.

bladder cancer [2] = experiment: Fluorescence diagnosis in bladder cancer patients grouped by disease stage (pTis, pTa, pT1, pT2, pT3), Example 2; assay type: in vivo, human; conditions: 50 bladder cancer patients, stages pTis, dosing as in Example 1
Procedure: ALA was injected into the bladder or administered orally similarly to Example 1 to bladder cancer patients who had been grouped according to the disease stages based on the intramural invasion depth of the primary tumor: 6 cases of pTis (intraepithelial cancer), 27 cases of pTa (without invasion), 9 cases of pT1 (with invasion to submucosal connective tissue), 6 cases of pT2 (with muscle invasion), 2 cases of pT3 (with invasion to pericystic adipose tissue) (50 cases for total number of patients). […] This confirmed that oral administration is effective in a diagnosis method for bladder cancer at every disease stage.

For `Cl.NCC(=O)CCC(=O)O` [ALA, 5-aminolevulinic acid hydrochloride], the “Fluorescence intensity (relative intensity) by VLD-M1” value (bladder cancer [1]; bladder instillation of ALA (1.5 g ALA-HCl in 50 mL 8.4% NaHCO3)) was 20153, the “Fluorescence intensity (relative intensity) by VLD-M1” value (bladder cancer [1]; oral intake of ALA (20 mg/kg, 4 hours before operation)) was 48623 and the “Identification of the site of bladder cancer by diagnostic imaging (FIGS. 1 and 2)” value (bladder cancer [1]; oral intake versus bladder instillation, irradiation at 380-440 nm, red light part observed) was “more remarkably identified in the case of oral intake than in the case of bladder instillation”. For the same compound, the “Fluorescence, oral administration versus injection into the bladder (FIGS. 3-6)” value (bladder cancer [2]) was “fluorescence was more intensive when ALA was orally administered than when injected into the bladder”.
